In patent US20250084063A1 (Incyte Corporation, priority 2023, published 2025):

Key:
MRGPRX2 [1] = biological target: T1, MRGPRX2 (Homo sapiens, UniProt Q96LB1); assay: MRGPRX2 FLIPR calcium mobilization assay; format: cell-based; design: host or cells: CHO-K1; details: CHO-K1 cells stably expressing human MRGPRX2; Ca2+ release, agonist Cortistatin-14 at EC80
T1 sequence (Q96LB1 1-330): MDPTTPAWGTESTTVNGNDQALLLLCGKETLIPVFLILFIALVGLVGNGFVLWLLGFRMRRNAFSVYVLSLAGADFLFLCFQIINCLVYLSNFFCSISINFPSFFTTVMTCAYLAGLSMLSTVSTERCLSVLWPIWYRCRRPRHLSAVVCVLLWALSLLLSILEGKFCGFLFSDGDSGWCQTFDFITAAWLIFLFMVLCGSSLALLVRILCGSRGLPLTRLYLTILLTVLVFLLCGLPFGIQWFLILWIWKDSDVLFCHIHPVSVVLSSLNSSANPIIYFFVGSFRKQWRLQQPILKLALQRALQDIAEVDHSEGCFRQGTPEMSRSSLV
Procedure: Example A. MRGPRX2 FLIPR Calcium Mobilization Assay
Chinese hamster ovary (CHO-K1) cells stably expressing human MRGPRX2 were purchased from Genescript (Piscataway, NJ). The cells were maintained in culture medium (Ham's F-12K) containing 10% (v/v) FBS, 200 μg/mL Zeocin, 100 units/mL penicillin G and 100 μg/mL streptomycin (Life Technologies, Carlsbad, CA). For the assay, the cells were harvested and resuspended with culture medium without Zeocin before plating at 8000 cells per well in 20 μL in 384-well black clear bottom cell culture plates (VWR, Radnor, PA). After 24 h culture at 37° C. and 5% CO2, the cells were loaded with 20 μL/well of calcium dye (FLIPR Calcium 6 Assay Kit, Molecular Devices, San Jose, CA) diluted in loading buffer (1×Hank's Balanced Salt Solution (HBSS), 5 mM probenecid, 20 mM 4-(2-hydroxyethyl)-1-piperazineethanesulfonic acid (HEPES), pH 7.4, VWR, Radnor, PA) followed with 45 min incubation at 37° C. and 40 min at room temperature in the dark. Cells were then treated with the addition of 10 uL/well test compounds with a range of increasing concentrations diluted in the assay buffer (1×HBSS, 20 mM HEPES, pH 7.4, VWR, Radnor, PA) with FLIPR Penta (Molecular Devices. San Jose, CA) and incubated for 30 min. at room temperature. Ca^2+ release was measured with FLIPR Penta with 10 seconds basal fluorescence measurement, then 12.5 μL of 5× agonist Cortistatin-14 (Tocris, Minneapolis, MN) at final concentration corresponding to the EC80 were added followed with continued fluorescence signal monitoring for an additional 110 seconds. The base line adjusted (median of first 10s base line) max value of the Relative Fluorescence Unit (RFU) was plotted against compound concentrations. Wells with no compound were served as the positive controls, and wells with high concentration of reference antagonist were used as negative controls. IC50 curves were globally fitted with 3- or 4-parameter Hill equation in a Genedata Screener (Genedata Basel, Switzerland).

MRGPRX2 [2] = biological target: T1, MRGPRX2; assay: MRGPRX2 IP1 HTRF assay; format: cell-based; design: host or cells: CHO-K1; details: CHO-K1 cells stably expressing human MRGPRX2; IP1 accumulation, agonist Cortistatin 14 1 μM
Source text: Example B: MRGPRX2 IP1 HTRF Assay
This assay measures compound inhibition of myo-Inositol 1 phosphate (IP1) accumulation in CHO-K1 cells. Chinese hamster ovary (CHO-K1) cells stably expressing human MRGPRX2 were purchased from GenScript (Piscataway, NJ).
For the HTRF IP1 determination, an IP-One GqKit (Perkin Elmer Cisbio, Waltham, MA), which includes all reagents and buffers in this protocol, was used. The cells were maintained in culture medium (Ham's F-12K) containing 10% (v/v) FBS, and 200 μg/mL Zeocin. For the assay, the cells were harvested and resuspended in culture medium with 2% FBS and without Zeocin, then were passed through a 40 μm filter. Cells were added at 20000 cells in a 5 μL/well to a 384-well white small volume cell culture plate (Greiner VWR, Radnor, PA) which contained 50 nL/well of test compound serially diluted at a selected concentration range in DMSO. 5 μL/well of prepared 2× Stimulation Buffer2 was then added to plates and was incubated at 37° C. with 5% CO2 for 1 h. 5 μL/well of agonist Cortistatin 14 (Bio-TechneR&D Systems, Minneapolis, MN) in 1× Stimulation Buffer 2, for a 1 μM final concentration, was then added to plates and incubated at 37° C. with 5% CO2 for 1 h. 6 μL/well of 1:20 diluted Detection Reagent Mix (d2 and Cryptate) was added to the plates and incubated for 1 h in the dark. Plates were read on the PHERAstar microplate reader (BMG Labtech Cary, NC) to determine the HTRF ratio of the acceptor and donor emission signals. The IP1 concentrations were calculated from a standard curve following the IP-One GQ kit instructions. Wells with DMSO only and wells with high concentration of reference antagonist were used as controls for normalization. Compound IC50 curves were globally fitted with 3- or 4-parameter Hill equation in a Genedata Screener (Genedata Basel, Switzerland).

IC50 (MRGPRX2 [1]) [nM] | IC50 (MRGPRX2 [2]) [nM] | SMILES
0.1 to 100 | 0.1 to 100 | NC(=O)N1CCC(CNc2cc(C(F)(F)F)nc3ccc(Cl)cc23)(c2ccccc2)CC1 [Example 13, 4-(((6-Chloro-2-(trifluoromethyl)quinolin-4-yl)amino)methyl)-4-phenylpiperidine-1-carboxamide]
0.1 to 100 | 0.1 to 100 | NS(=O)(=O)N1CC(CNc2cc(C(F)(F)F)nc3ccc(Cl)cc23)(c2ccc(Cl)cc2)C1 [Example 33, 3-(((6-Chloro-2-(trifluoromethyl)quinolin-4-yl)amino)methyl)-3-(4-chlorophenyl)azetidine-1-sulfonamide]
0.1 to 100 | 0.1 to 100 | NS(=O)(=O)N1CC(CNc2cc(C(F)(F)F)nc3ccc(Cl)cc23)(c2ccc(F)c(F)c2)C1 [Example 34, 3-(((6-Chloro-2-(trifluoromethyl)quinolin-4-yl)amino)methyl)-3-(3,4-difluorophenyl)azetidine-1-sulfonamide]
0.1 to 100 | 0.1 to 100 | NS(=O)(=O)N1CC(CNc2cc(C(F)(F)F)nc3ccc(Cl)cc23)(c2ccnc(Cl)c2)C1 [Example 35, 3-(((6-Chloro-2-(trifluoromethyl)quinolin-4-yl)amino)methyl)-3-(2-chloropyridin-4-yl)azetidine-1-sulfonamide]
0.1 to 100 | 0.1 to 100 | NS(=O)(=O)N1CC(CNc2cc(C(F)(F)F)nc3ccc(Cl)cc23)(n2cc(Cl)cn2)C1 [Example 36, 3-(4-Chloro-1H-pyrazol-1-yl)-3-(((6-chloro-2-(trifluoromethyl)quinolin-4-yl)amino)methyl)azetidine-1-sulfonamide]
0.1 to 100 | 0.1 to 100 | NC(=O)N1CC(CNc2cc(C(F)(F)F)nc3ccc(Cl)cc23)(c2ccc(F)cc2)C1 [Example 39, 3-(((6-Chloro-2-(trifluoromethyl)quinolin-4-yl)amino)methyl)-3-(4-fluorophenyl)azetidine-1-carboxamide]
0.1 to 100 | 0.1 to 100 | NC(=O)N1CC(CNc2cc(C(F)(F)F)nc3ccc(Cl)cc23)(c2ccccc2)C1 [Example 40, 3-(((6-Chloro-2-(trifluoromethyl)quinolin-4-yl)amino)methyl)-3-phenylazetidine-1-carboxamide]
0.1 to 100 | 0.1 to 100 | NC(=O)N1CC(CNc2cc(C(F)(F)F)nc3ccc(Cl)cc23)(c2ccnc(Cl)c2)C1 [Example 42, 3-(((6-Chloro-2-(trifluoromethyl)quinolin-4-yl)amino)methyl)-3-(2-chloropyridin-4-yl)azetidine-1-carboxamide]
0.1 to 100 | 0.1 to 100 | CNC(=O)N1CC(CNc2cc(C(F)(F)F)nc3ccc(Cl)cc23)(c2ccccc2)C1 [Example 48, 3-(((6-Chloro-2-(trifluoromethyl)quinolin-4-yl)amino)methyl)-N-methyl-3-phenylazetidine-1-carboxamide]
0.1 to 100 | 0.1 to 100 | Fc1ccc(C2(CNc3cc(C(F)(F)F)nc4ccc(Cl)cc34)COC2)cc1 [Example 50, 6-Chloro-N-((3-(4-fluorophenyl)oxetan-3-yl)methyl)-2-(trifluoromethyl)quinolin-4-amine]
0.1 to 100 | 0.1 to 100 | CNC(=O)N1CC(CNc2cc(C(F)(F)F)nc3ccc(Cl)cc23)(c2ccc(F)cn2)C1 [Example 51, 3-(((6-Chloro-2-(trifluoromethyl)quinolin-4-yl)amino)methyl)-3-(5-fluoropyridin-2-yl)-N-methylazetidine-1-carboxamide]
0.1 to 100 | 0.1 to 100 | CNC1CCC(CNc2cc(C(F)(F)F)nc3ccc(Cl)cc23)(c2ccccc2)C1 (centres unmarked) [Example 55, 6-Chloro-N-((3-(methylamino)-1-phenylcyclopentyl)methyl)-2 (trifluoromethyl)quinolin-4-amine]
0.1 to 100 | 100 to 1000 | Cc1ccc2nc(C(F)(F)F)cc(NCC3(c4ccc(F)cn4)CN(C(N)=O)C3)c2c1 [Example 56, 3-(5-Fluoropyridin-2-yl)-3-(((6-methyl-2-(trifluoromethyl)quinolin-4-yl)amino)methyl)azetidine-1-carboxamide]
0.1 to 100 | – | NC(=O)N1CC(CNc2cc(C(F)(F)F)nc3cc(Cl)ccc23)(c2ccc(F)cn2)C1 [Example 57, 3-(((7-Chloro-2-(trifluoromethyl)quinolin-4-yl)amino)methyl)-3-(5-fluoropyridin-2-yl)azetidine-1-carboxamide]
100 to 1000 | 100 to 1000 | N#Cc1ccc2nc(C(F)(F)F)cc(NCC3(c4ccc(F)cn4)CN(C(N)=O)C3)c2c1 [Example 58, 3-(((6-Cyano-2-(trifluoromethyl)quinolin-4-yl)amino)methyl)-3-(5-fluoropyridin-2-yl)azetidine-1-carboxamide]
100 to 1000 | > 1000 | NC(=O)N1CC(CNc2cc(C(F)(F)F)nc3cccc(F)c23)(c2ccc(F)cn2)C1 [Example 60, 3-(((5-Fluoro-2-(trifluoromethyl)quinolin-4-yl)amino)methyl)-3-(5-fluoropyridin-2-yl)azetidine-1-carboxamide]
> 1000 | > 1000 | Cc1ccc2c(NCC3(c4ccc(F)cn4)CN(C(N)=O)C3)cc(C(F)(F)F)nc2c1 [Example 61, 3-(5-Fluoropyridin-2-yl)-3-(((7-methyl-2-(trifluoromethyl)quinolin-4-yl)amino)methyl)azetidine-1-carboxamide]
> 1000 | > 1000 | Cc1cccc2nc(C(F)(F)F)cc(NCC3(c4ccc(F)cn4)CN(C(N)=O)C3)c12 [Example 62, 3-(5-Fluoropyridin-2-yl)-3-(((5-methyl-2-(trifluoromethyl)quinolin-4-yl)amino)methyl)azetidine-1-carboxamide]
100 to 1000 | > 1000 | NC(=O)N1CC(CNc2cc(C(F)(F)F)nc3cc(C(F)(F)F)ccc23)(c2ccc(F)cn2)C1 [Example 63, 3-(((2,7-Bis(trifluoromethyl)quinolin-4-yl)amino)methyl)-3-(5-fluoropyridin-2-yl)azetidine-1-carboxamide]
> 1000 | – | N#Cc1cccc2c(NCC3(c4ccc(F)cn4)CN(C(N)=O)C3)cc(C(F)(F)F)nc12 [Example 64, 3-(((8-Cyano-2-(trifluoromethyl)quinolin-4-yl)amino)methyl)-3-(5-fluoropyridin-2-yl)azetidine-1-carboxamide]
– | 100 to 1000 | Cc1cc(C)n(C2(CNc3cc(C(F)(F)F)nc4ccc(Cl)cc34)CN(C(N)=O)C2)n1 [Example 105, 3-(((6-Chloro-2-(trifluoromethyl)quinolin-4-yl)amino)methyl)-3-(3,5-dimethyl-1H-pyrazol-1-yl)azetidine-1-carboxamide]

SMILES | IC50 (MRGPRX2 [1]) [nM] | IC50 (MRGPRX2 [2]) [nM]
CN1CCC(CNc2cc(C(F)(F)F)nc3ccc(Cl)cc23)(c2ccccc2)CC1 [Example 15, 6-Chloro-N-((1-methyl-4-phenylpiperidin-4-yl)methyl)-2-(trifluoromethyl)quinolin-4-amine] | 0.1 to 100 | 0.1 to 100
